# According to paper PMC13095408, “DBeQ derivative targets vacuolar protein sorting 4 functions in cancer cells and suppresses tumor growth in mice” (The Journal of Pharmacology and Experimental Therapeutics, 2025):
# Tests used:
# U2OS cells = test: Immunoblot analysis of VPS4- and VCP-mediated pathways (autophagy, ER stress, ERAD); assay type: cell-based; settings: 0.6 μM CB-5083, 1 μM 4-107, complete media
# Protocol: Whole-cell lysates were prepared in radio-immunoprecipitation buffer (25 mM Tris-HCl, pH 8.0, 150 mM NaCl, 1 mM EDTA, 1% v/v IGEPAL CA-630, 0.5% w/v sodium deoxycholate, and 1% v/v SDS) containing protease (1:250) and phosphatase inhibitor cocktails (1:100) then resolved via SDS-PAGE and probed with the indicated antibodies. Signals were acquired with the Odyssey CLx (LI-COR) for fluorescence or Odyssey XF (LI-COR) for chemiluminescence detection and visualized in Image Studio version 6 (LI-COR).
# VPS4 is essential for autophagy and loss of VPS4 function inhibits autophagic flux ([Takahashi et al, 2018]; [Zhen et al, 2019]). Meanwhile, VCP is required for endoplasmic reticulum-associated degradation (ERAD; [Rabinovich et al, 2002]) where VCP inhibition results in the accumulation of ubiquitinated proteins and induction of ER stress ([Weihl et al, 2006]; [Bastola et al, 2016]).
# recombinant human VCP = biological target: T1, recombinant human VCP (Rattus norvegicus, UniProt P46462); test: VCP ATPase activity, EnzChek Phosphate assay; assay type: biochemical
# T1 construct: His (N); host or cells: Escherichia coli BL21(DE3)
# Protocol: (§1) VPS4B and VCP ATPase activities were measured using the EnzChek Phosphate assay for the quantification of released phosphate. Assay buffers were based on literature precedents ([Cupido et al, 2019], [2021]) as follows: VPS4B buffer (20 mM HEPES-KOH, pH 7.4, 25 mM KOAc, 2 mM MgCl2, 5 mM (NH4)2SO4, 0.5 mM CaCl2, 2.5 mM DTT, 0.1 mg/mL BSA, 0.005% v/v Triton X-100), VCP buffer (20 mM HEPES-NaOH, pH 7.4, 20 mM NaCl, 10 mM MgCl2, 5 mM (NH4)2SO4, 0.5 mM CaCl2, 2.5 mM DTT, 0.1 mg/mL BSA, 0.005% v/v Triton X-100). In black clear-bottom 384-well plates, 22.5 μL of 5% DMSO or 40× test compounds diluted in the respective assay buffer was added to each well. ATPases were diluted to 1 μM in the respective buffers containing 2× EnzChek Phosphate assay coupling reagents of 400 μM MESG and 2 U of PNP, then 25 μL was added to each well. Plates were mixed at 1000 rpm for 30 minutes at RT while being protected from light. The reaction was initiated by adding 2.5 μL of 20 mM MgATP or water followed by mixing at 1200 rpm for 30 seconds at RT. Plates were measured at 360 nm using a CLARIOstar plate reader (BMG LABTECH) for 20 minutes at 37 °C. ATPase activity was calculated as the amount of phosphate released over a 5-minute interval under linear initial velocity conditions. The remaining ATPase activity was calculated by normalizing compound-treated activity values to the DMSO control. IC50 was calculated by fitting normalized values to a sigmoidal dose-response curve with Hill slope = −1 using Graph Pad Prism 10.0.
# (§2) To identify VPS4i, we developed enzyme- and cell-based VPS4 functional assays to serve as VPS4i-screening platforms. For the enzyme-based assay, we used the colorimetric EnzChek Phosphate assay that detects free phosphate with the advantage of continuous measurement of ATP hydrolysis over time. […] Due to the high sequence and structural similarity of AAA-ATPases, we also established a VCP ATPase assay to evaluate hit selectivity. […] For the cell-based assay, our approach was based on how VPS4 inhibition causes the accumulation of ESCRT-III ([Babst et al, 1998]; [Katoh et al, 2003]). We used an N-terminal GFP-tagged CHMP4B reporter system because it is the most abundant ESCRT-III subunit ([Katoh et al, 2004]; [Teis et al, 2008]). Our aim was to test compounds under short-term serum and amino acid starvation to stimulate ESCRT activity for easier detection of inhibitors ([Takahashi et al, 2018], [2019]). […] Overall, we established 2 systems for VPS4i screening, a VPS4B ATPase activity assay and a GFP-CHMP4B accumulation cell-based assay.
# VPS4B = biological target: T2, VPS4B (Homo sapiens, UniProt O75351); test: VPS4B ATPase activity, EnzChek Phosphate assay; assay type: biochemical; parameters: His tag (pET28a vector-encoded) (N); made in house; host or cells: Escherichia coli BL21(DE3)
# T2 sequence (O75351 1-444): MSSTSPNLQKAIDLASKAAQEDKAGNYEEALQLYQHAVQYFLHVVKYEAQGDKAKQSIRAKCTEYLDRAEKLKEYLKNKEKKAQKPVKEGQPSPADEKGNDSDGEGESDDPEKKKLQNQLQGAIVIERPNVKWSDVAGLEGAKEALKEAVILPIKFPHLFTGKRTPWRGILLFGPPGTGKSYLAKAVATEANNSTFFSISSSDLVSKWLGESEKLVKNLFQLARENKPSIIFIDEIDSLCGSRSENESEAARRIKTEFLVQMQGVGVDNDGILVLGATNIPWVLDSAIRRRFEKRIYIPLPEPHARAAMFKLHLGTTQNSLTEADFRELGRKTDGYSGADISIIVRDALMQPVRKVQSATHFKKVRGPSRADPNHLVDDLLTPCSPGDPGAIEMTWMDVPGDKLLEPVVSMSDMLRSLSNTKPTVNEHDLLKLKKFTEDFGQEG
# Protocol: as §1, §2
# [1] = system: GFP-CHMP4B-expressing U2OS cells; test: GFP-CHMP4B accumulation cell-based assay (high-content microscopy)
# Protocol: Plates were then scanned using the 20× objective for 1 hour with ≥100 cells/well across 6 fields/well. […] For all other assays, the cells were cultured overnight in black glass-bottom 96-well plates (Cellvis; P96-1.5H-N) then stained, rinsed, and treated with SM containing the indicated compounds (0.1% DMSO or 0.1% DMSO/0.1% ethanol [vehicle] final). Plates were scanned using the 20× NA .70 objective at the indicated intervals with ≥ 300 cells/well across 3 fields/well. […]
# [2] = screened at 5 µM, mean ± S.D., Supplemental Table 2
# [3] = screened at 1 µM, mean ± S.D., Supplemental Table 2
# [4] = remaining ATPase activity, screened at 5 μM, mean ± SD, Table 1
# [5] = screened at 1 μM, starvation media, 1 hour, foci intensity per cell normalized to 4-107, mean ± SD, Table 1
# [6] = remaining ATPase activity, screened at 5 μM, mean ± SD, Table 2
# T1 sequence (P46462 2-806 limits assumed): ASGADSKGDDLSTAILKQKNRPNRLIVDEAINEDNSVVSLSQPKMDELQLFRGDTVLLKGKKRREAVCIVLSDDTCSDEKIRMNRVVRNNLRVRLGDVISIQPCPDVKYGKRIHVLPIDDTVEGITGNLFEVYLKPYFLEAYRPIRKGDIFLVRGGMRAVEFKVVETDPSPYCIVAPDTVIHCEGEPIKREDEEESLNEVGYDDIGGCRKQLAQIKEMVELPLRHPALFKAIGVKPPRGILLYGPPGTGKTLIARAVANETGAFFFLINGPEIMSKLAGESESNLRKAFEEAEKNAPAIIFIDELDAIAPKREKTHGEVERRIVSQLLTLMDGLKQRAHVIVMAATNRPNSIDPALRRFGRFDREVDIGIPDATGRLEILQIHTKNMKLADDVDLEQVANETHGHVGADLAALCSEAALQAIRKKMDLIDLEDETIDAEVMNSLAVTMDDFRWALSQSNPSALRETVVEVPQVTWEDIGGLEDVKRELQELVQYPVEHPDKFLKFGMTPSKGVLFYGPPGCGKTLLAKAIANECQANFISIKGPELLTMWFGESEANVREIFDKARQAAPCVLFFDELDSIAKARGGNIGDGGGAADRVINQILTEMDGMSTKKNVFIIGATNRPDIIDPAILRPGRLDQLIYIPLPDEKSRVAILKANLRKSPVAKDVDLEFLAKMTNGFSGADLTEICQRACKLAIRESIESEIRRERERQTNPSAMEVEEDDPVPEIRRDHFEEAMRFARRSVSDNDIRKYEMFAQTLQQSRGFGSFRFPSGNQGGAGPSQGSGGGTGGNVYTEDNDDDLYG
Structure (SMILES),accumulation of K48-linked polyubiquitinated proteins (U2OS cells),"ER stress (HSPA5, ATF4) (U2OS cells; 5 μM DBeQ)","autophagy (SQSTM1, LC3-II) (U2OS cells; 5 μM DBeQ)",VCP ATPase (% DMSO) (recombinant human VCP; [2]),VPS4B ATPase (% DMSO) (VPS4B; [2]),"GFP-CHMP4B (% 4-107) [1, 3] [% 4-107]",VPS4B ATPase (% DMSO) (VPS4B; [4]),"GFP-CHMP4B (% 4-107) [1, 5] [% 4-107]","VPS4B ATPase (% DMSO) (VPS4B; screened at 5 µM, mean ± S.D., Supplemental Table 2, listed as 7-07)","GFP-CHMP4B (% 4-107) ([1]; screened at 1 µM, mean ± S.D., Supplemental Table 2, listed as 7-07)",VCP ATPase (% DMSO) (recombinant human VCP; [6])
Cc1cc2c(C(N)=O)cccc2n1-c1nc2c(c(NCc3ccccc3)n1)COCC2 [CB-5083],accumulation of K48-linked polyubiquitinated proteins,strongly induced ER stress,"reduction in SQSTM1, indicating the stimulation of autophagy",,,,,,,,
COc1cccc(CNc2nc(NCc3ccccc3)c3cccc(OC)c3n2)c1 [Compound 5-27-2],,,,100.03 ± 0.81,51.50 ± 0.83,71.11 ± 0.37,,,,,
COc1cccc2c(NCc3ccccc3)nc(NCc3ccc(F)cc3)nc12 [Compound 5-151],,,,93.82 ± 0.90,47.66 ± 0.34,73.02 ± 27.67,,,,,
COc1ccc2c(NCc3ccccc3)nc(NCc3ccccc3)nc2c1 [Compound 6],,,,86.15 ± 0.65,35.59 ± 2.28,33.47 ± 15.62,35.59 ± 2.28,33.47 ± 15.62,,,
COc1cccc2c(NCc3ccccc3)nc(NCc3ccc(C#N)cc3)nc12 [Compound 7-05],,,,95.43 ± 0.86,54.50 ± 2.02,42.59 ± 0.15,,,,,
Nc1cccc2c(NCc3ccccc3)nc(NCc3ccccc3)nc12 [Compound 7-31],,,,69.70 ± 8.05,,48.41 ± 2.74,,,,,
COc1cccc2c(NCc3ccccc3)nc(NCc3cccc4ccccc34)nc12 [Compound 13],,,,98.67 ± 2.86,28.27 ± 0.04,36.79 ± 0.89,28.27 ± 0.04,36.79 ± 0.89,,,
COc1cccc2c(NCc3ccccc3)nc(NCc3cccc(C(F)(F)F)c3)nc12 [Compound 15],,,,,28.57 ± 1.13,25.61 ± 20.09,28.57 ± 1.13,25.61 ± 20.09,,,
COc1cccc2c(NCc3ccccc3)nc(NCc3cccc(OC(F)(F)F)c3)nc12 [Compound 16],,,,,,,41.50 ± 2.98,7.52 ± 1.95,41.50 ± 2.98,7.52 ± 1.95,
COc1cccc2c(NCc3ccccc3)nc(NCc3cccc(C#N)c3)nc12 [Compound 17],,,,91.83 ± 3.79,55.59 ± 2.13,82.61 ± 11.90,55.59 ± 2.13,82.61 ± 11.90,,,91.83 ± 5.36
COc1cccc2c(NCc3ccccc3)nc(NCc3ccc(C)cc3)nc12 [Compound 18],,,,83.40 ± 3.28,27.55 ± 0.01,48.09 ± 1.26,27.55 ± 0.01,48.09 ± 1.26,,,83.40 ± 4.64
COc1ccc(CNc2nc(NCc3ccccc3)c3cccc(OC)c3n2)cc1 [Compound 19],,,,107.28 ± 1.88,29.98 ± 0.49,86.61 ± 22.39,29.98 ± 0.49,86.61 ± 22.39,,,107.28 ± 2.66
COc1cccc2c(NCc3ccccc3)nc(NCc3cccc(F)c3)nc12 [Compound 20],,,,80.50 ± 0.40,35.22 ± 0.66,99.48 ± 22.3,35.22 ± 0.66,99.48 ± 22.30,,,80.50 ± 0.57
COc1ccc(CNc2nc(NCc3ccc(OC)cc3)c3cccc(OC)c3n2)cc1 [Compound 21],,,,100.96 ± 0.28,33.98 ± 3.50,37.69 ± 13.03,33.98 ± 3.50,37.69 ± 13.03,,,
COc1cccc2c(NCc3ccc(F)cc3)nc(NCc3ccc(F)cc3)nc12 [Compound 22],,,,99.33 ± 2.70,46.38 ± 2.33,51.23 ± 26.20,46.38 ± 2.33,51.23 ± 26.20,,,
